According to US5705492A, “3'-O-aminoacyl ARA uridines, method of making, and antiviral activity” (Hoffmann-La Roche Inc., priority 1995, dated 1998):
Counter-ions that a name gives are not always drawn.

How the values were obtained:
HSV-2 thymidine kinase = HSV-2 thymidine kinase (Human herpesvirus 2, UniProt P04407); experiment: inhibition of HSV-2 thymidine kinase; assay type: biochemical; details: 3H-thymidine phosphorylation, 37° C., 30 minutes, pH 8; read-out: IC50 against HSV-2 thymidine kinase
Procedure: (§1) In this test procedure, the assay mixture contains 50 mmol Tris HCl, pH 8, 5 mmol magnesium chloride, 5 mmol ATP, 0.3 μmol ^3 H-thymidine (50 Ci/mmol), suitably diluted enzyme preparation and various concentrations of test compounds in a total volume of 100 μl. Assays are incubated at 37° C. for 30 minutes and the reaction is terminated by immersion in a boiling water bath for 2 minutes. 85 μl aliquots from each assay are then dried on to DEAE-cellulose paper discs and the unphosphorylated ^3 H-thymidine is removed by washing in 4 mmol ammonium formate. The radioactivity remaining bound to the discs is then measured by scintillation spectrophotometry. The degree of inhibition at each concentration of test compound is expressed as a percentage of the control reaction (100%) after subtracting a measured blank value which represents the amount of radioactivity bound to the disc from a reaction containing heat-inactivated enzymes. The IC50 value, namely the concentration of test compound which inhibits enzyme activity by 50%, is then calculated.

HSV-1 thymidine kinase = HSV-1 thymidine kinase (Human herpesvirus 1, UniProt P0DTH5); experiment: inhibition of HSV-1 thymidine kinase; assay type: biochemical; details: 3H-thymidine phosphorylation, 37° C., 30 minutes, pH 8; read-out: IC50 against HSV-1 thymidine kinase
Procedure: as §1

Sequence of HSV-1 thymidine kinase (P0DTH5 whole entry): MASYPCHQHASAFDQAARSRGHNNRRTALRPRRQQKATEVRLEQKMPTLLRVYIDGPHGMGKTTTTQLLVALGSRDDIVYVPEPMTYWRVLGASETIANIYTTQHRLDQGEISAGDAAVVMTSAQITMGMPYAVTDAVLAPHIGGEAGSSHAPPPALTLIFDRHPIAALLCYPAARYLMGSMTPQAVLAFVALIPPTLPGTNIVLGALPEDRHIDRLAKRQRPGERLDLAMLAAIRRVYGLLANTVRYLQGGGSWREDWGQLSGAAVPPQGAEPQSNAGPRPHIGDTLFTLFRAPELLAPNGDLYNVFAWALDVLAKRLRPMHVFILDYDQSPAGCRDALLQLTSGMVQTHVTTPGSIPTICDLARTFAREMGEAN
Sequence of HSV-2 thymidine kinase (P04407 whole entry): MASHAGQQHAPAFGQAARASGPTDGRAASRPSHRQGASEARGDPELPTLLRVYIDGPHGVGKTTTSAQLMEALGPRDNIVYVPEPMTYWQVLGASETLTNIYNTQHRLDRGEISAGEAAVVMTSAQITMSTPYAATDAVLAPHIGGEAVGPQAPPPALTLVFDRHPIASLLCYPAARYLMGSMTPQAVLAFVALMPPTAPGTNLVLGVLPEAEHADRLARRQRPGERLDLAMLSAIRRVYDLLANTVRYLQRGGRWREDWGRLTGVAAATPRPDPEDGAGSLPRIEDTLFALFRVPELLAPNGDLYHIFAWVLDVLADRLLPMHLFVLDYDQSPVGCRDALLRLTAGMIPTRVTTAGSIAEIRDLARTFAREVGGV

`CCc1cn([C@@H]2O[C@H](CNC(=O)[C@H](C)Oc3cc(OC)c(Cl)cc3Cl)[C@@H](OC(=O)[C@@H](N)C(C)C)[C@@H]2F)c(=O)[nH]c1=O` [Example 1, 1-[5-[2(S)-(2,4-dichloro-5-methoxyphenoxy)propionamido]-1,5-dideoxy-2-fluoro-3-O-L-valyl-β-D-arabinofuranosyl]-5-ethyluracil hydrochloride] was tested, and the IC50 (HSV-2 thymidine kinase) was 1.1 nM and the IC50 (HSV-1 thymidine kinase) was 18 nM.
